From paper PMC9519396, “First thermostable CLIP-tag by rational design applied to an archaeal O^6-alkyl-guanine-DNA-alkyl-transferase” (Computational and Structural Biotechnology Journal, 2022)

Molecular target: T1, SsOGT-MC^8 (Saccharolobus solfataricus, UniProt Q97VW7, G105N/G130P/K110E/M106T/R102A/S100A/S109D/S132L)
T1 construct: gene ogt; TSCLIP; synthetic gene with eight substitutions, Y90 kept; His6-tag, pHTP1, E. coli BL21 Rosetta2 (DE3), Ni-NTA purified; 8AES holds no ligand
T1 sequence (Q97VW7 1-151 S100A/R102A/G105N/M106T/S109D/K110E/G130P/S132L): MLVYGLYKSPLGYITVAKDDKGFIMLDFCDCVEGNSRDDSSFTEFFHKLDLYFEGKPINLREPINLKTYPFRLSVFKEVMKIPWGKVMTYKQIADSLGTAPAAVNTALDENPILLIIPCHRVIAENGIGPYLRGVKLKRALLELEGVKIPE
Assay: competitive labelling with BC-TMR, SDS-PAGE fluorescence gel imaging
Assay type: biochemical
Text: competitive labelling with BC-TMR, SDS-PAGE fluorescence gel imaging on SsOGT-MC^8

**Q.** With `[N-]=[N+]=NCCCCCC(=O)NCc1ccc(COc2nccc(N)n2)cc1` [BC-2] as the compound, how does the IC50 read?
**A.** Its IC50 is 128 ± 31.1 µM.
